{
  "source": "patent US9527879B2",
  "about": "“Aster glehni extracts, fractions or compounds isolated therefrom for the treatment or prevention of hyperuricemia or gout” (KOREA INSTITUTE OF SCIENCE AND TECHNOLOGY, priority 2014, dated 2016)",
  "data": [
    {"biological_target": "xanthine oxidase (UniProt P80457)", "test": "Inhibition of production of uric acid by xanthine/xanthine oxidase", "type": "biochemical", "details": "xanthine oxidase 0.024 units/mL, 100 μM xanthine, pH 7.5, 25° C.; mean ± SEM of triplicate experiments", "experimental": "Uric acid is produced from xanthine oxidation by xanthine oxidase.\nSpecifically, the sample and xanthine oxidase (0.024 units/mL) were mixed in 100 mM phosphate buffer (pH 7.5) and preincubated at 25° C. for 10 min. The reaction was initiated by the addition of 100 μM xanthine and incubation was further carried out at 25° C. for 30 min. […] The inhibition of uric acid production A (%) was calculated according to Equation 1. […] [Equation 1]", "units": {"IC50": "µM"}, "values": [
      {"smiles": "C[C@H](/C=C/[C@@]1(O)[C@H](C)CC(=O)CC1(C)C)OC1OC(COC(=O)/C=C/c2ccc(O)c(O)c2)C(O)C(O)C1O", "note": "(stereo partly shown) [Compound 1, 6′-O-caffeoylampelopsisionoside]", "IC50": "93 ± 1.7"},
      {"smiles": "CC(=O)/C=C/C1=C(C)C(O)C(O[C@@H]2OC(COC(=O)/C=C/c3ccc(O)c(O)c3)[C@@H](O)C(O)C2O)CC1(C)C", "note": "(stereo partly shown) [Compound 3, 6′-O-Caffeoylsonchuinoside C]", "IC50": "73.2 ± 5.1"},
      {"smiles": "COc1cc(CCCO)cc(OC)c1O[C@@H]1OC(COC(=O)/C=C/c2ccc(O)c(O)c2)[C@@H](O)C(O)C1O", "note": "(stereo partly shown) [Compound 4, 6′-O-Caffeoyldihydrosyringin]", "IC50": "71.1 ± 3.9"},
      {"smiles": "C/C(=C\\CO)CO[C@@H]1OC(COC(=O)/C=C/c2ccc(O)c(O)c2)[C@@H](O)C(O)C1O", "note": "(stereo partly shown) [Compound 5]", "IC50": "80 ± 4.9"}
    ]}
  ]
}
